Columns and labels:
Test in all cases: relative viability (nuclei count vs DMSO), 5 days (fraction); higher = more cells survive
[1] = compound: CC(C)C[C@@H](C(=O)N[C@H](C(=O)OC1CCCC1)c1ccccc1)[C@H](O)C(=O)NO [Tosedostat]
Procedure, shortened: (§1)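 Lung cancer cell lines in 1536-well plates were exposed by pinning to five library-drug doses (not always all listed) √10 apart, following an overnight hold at 37 °C. MetaXpress counted Hoechst-stained nuclei from 4× images taken after 5 days without medium change. Viability is the median ratio of treated-well to vehicle-well nuclei across plates. Plates required control CV below 25% and at least one doubling.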

[2] = compound: CC1=NN=C(O1)C2=NN=C(C=C2)N3CCC(CC3)OC4=C(C=CC(=C4)F)Cl
Procedure, shortened: as §1

[3] = compound: CC(C)C[C@@H](C(=O)N[C@H](C(=O)OC1CCCC1)c1ccccc1)[C@H](O)C(=O)NO [Tosedostat] + CC1(C)CCC(c2ccc(Cl)cc2)=C(CN2CCN(c3ccc(C(=O)NS(=O)(=O)c4ccc(N[C@H](CCN5CCOCC5)CSc5ccccc5)c(S(=O)(=O)C(F)(F)F)c4)cc3)CC2)C1 [Navitoclax] (partner 0.5 µM)
Procedure, shortened: (§2)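 Lung cancer cell lines in 1536-well plates got either a single drug or a fixed anchor-drug dose together with five library-drug doses (not always all listed) in √10 steps, by pin tool, on the day after seeding. Nuclei were counted after 5 days, and relative viability is the treated-to-vehicle ratio of nuclei counts. Values are medians of duplicate plates.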

[4] = compound: CC(C)C[C@@H](C(=O)N[C@H](C(=O)OC1CCCC1)c1ccccc1)[C@H](O)C(=O)NO [Tosedostat] + COc1cc2c(Oc3ccc(NC(=O)C4(C(=O)Nc5ccc(F)cc5)CC4)cc3F)ccnc2cc1OCCCN1CCOCC1 [Foretinib] (partner 0.25 µM)
Procedure, shortened: as §2

Cell Line	relative viability ([1]; 0.02 µM)	relative viability ([1]; 0.06325 µM)	relative viability ([1]; 0.2 µM)	relative viability ([1]; 0.6325 µM)	relative viability ([1]; 2 µM)	relative viability ([2]; 0.253 µM)	relative viability ([2]; 0.8 µM)	relative viability ([2]; 2.53 µM)	relative viability ([2]; 8 µM)	relative viability ([3]; first compound 0.02 µM)	relative viability ([3]; first compound 0.06325 µM)	relative viability ([3]; first compound 0.2 µM)	relative viability ([3]; first compound 0.6325 µM)	relative viability ([3]; first compound 2 µM)	relative viability ([4]; first compound 0.02 µM)	relative viability ([4]; first compound 0.06325 µM)	relative viability ([4]; first compound 0.2 µM)	relative viability ([4]; first compound 0.6325 µM)	relative viability ([4]; first compound 2 µM)
NCI-H1355	0.961	0.936	1.04	0.838	0.905	0.685	0.592	0.915	0.82	0.766	0.795	1.05	0.979	0.803	0.93	0.991	0.99	0.92	0.883
LXF-289	1.08	0.987	0.992	0.993	1.05	0.712	0.616	0.737	0.653	0.965	0.879	0.938	0.897	0.958	0.981	1	1.04	0.943	0.962
HCC-78	0.938	1.04	1	1.04	0.958	0.659	0.615	0.578	0.551	0.717	0.808	0.736	0.868	0.948	0.518	0.59	0.545	0.662	0.684
NCI-H1666	1	0.933	1.02	1.08	0.999	0.707	0.844	0.835	0.782	0.864	0.946	0.98	1.39	1.05	1.08	1.01	0.945	0.899	1.05
HCC-15	1.05	0.89	0.996	0.901	0.848	0.463	0.449	0.456	0.464	0.772	0.729	0.684	0.659	0.57	1.08	0.995	1.02	0.96	0.849
EKVX	0.973	0.972	0.944	0.859	0.911	0.475	0.405	0.432	0.479	0.962	0.969	0.898	0.944	0.804	0.649	0.759	0.795	0.736	0.729
NCI-H2347	1.01	1.05	1.05	0.927	0.833	0.883	0.771	0.893	0.783	0.671	0.8	0.766	0.688	0.68	0.711	0.731	1.04	0.955	0.969
LK-2	1.13	1.11	0.926	0.954	1.13	0.965	0.823	1.01	1.02	0.905	0.855	0.788	0.909	0.976	1.1	0.926	1.02	1.11	1.68
NCI-H1651	1.06	0.984	0.973	0.921	0.899	0.819	0.795	0.784	0.682	1.03	0.885	1.28	1.07	1	0.864	0.736	0.764	0.906	0.688
COR-L23	1.13	1	0.965	1.01	1.06	0.826	0.891	0.797	0.655	1.2	1.04	1.04	0.884	0.958	1.04	1.03	0.975	1.07	1.06
SW 1573	1.07	0.95	0.881	0.85	0.876	0.894	0.981	0.942	0.615	1.06	1.05	1.06	0.796	0.959	0.877	0.906	0.924	0.825	0.974
A549	1.05	0.945	0.922	0.929	0.815	0.69	0.611	0.575	0.541	1.37	1.15	1.14	1.19	1.01	0.925	0.967	0.998	0.974	0.652
A-427	1.04	0.955	0.992	0.941	0.908	0.904	–	0.956	0.789	0.921	0.925	0.999	1.03	0.925	0.979	1	1.07	1.12	0.877
NCI-H2009	1.16	0.94	0.988	0.926	0.866	0.613	0.552	0.61	0.539	1.2	1.12	1.17	1.06	1.07	1.34	1.15	1.19	1.11	1.09
LCLC-97TM1	1.12	0.973	0.876	0.83	0.621	0.795	–	0.564	0.548	0.559	–	–	0.633	0.293	0.878	0.926	0.833	0.771	0.773
LOU-NH91	1.04	1.01	0.937	0.919	0.86	–	0.866	0.908	0.957	0.753	0.657	0.615	0.543	0.483	0.981	0.955	0.882	0.887	0.871
BEN	1.01	1.03	1.09	1.3	1.2	0.895	0.959	0.974	0.821	0.35	0.0546	0.0614	0.0633	0.0537	0.713	0.825	0.799	0.878	0.846

— the supplement of paper PMC10307832
